Drawing on ChEMBL document CHEMBL2074518, “Multiple systems for the biliary excretion of organic anions in rats: liquiritigenin conjugates as model compounds” (J Pharmacol Exp Ther, 1994), this text covers Activity for one compound.

In series [1] the target is T1, ATP-binding cassette sub-family C member 2 (Rattus norvegicus, UniProt Q63120). The series can be described thus: TP_TRANSPORTER: biliary excretion in EHBR rat. Format: functional, organism-based, Bile. The note with it: in vivo.
Series [2] has as its target T1, ATP-binding cassette sub-family C member 2. The series can be described thus: TP_TRANSPORTER: biliary excretion in SD rat. The format is functional, organism-based, Sprague-Dawley, Bile. The note with it: in vivo.

T1 sequence (Q63120 whole entry): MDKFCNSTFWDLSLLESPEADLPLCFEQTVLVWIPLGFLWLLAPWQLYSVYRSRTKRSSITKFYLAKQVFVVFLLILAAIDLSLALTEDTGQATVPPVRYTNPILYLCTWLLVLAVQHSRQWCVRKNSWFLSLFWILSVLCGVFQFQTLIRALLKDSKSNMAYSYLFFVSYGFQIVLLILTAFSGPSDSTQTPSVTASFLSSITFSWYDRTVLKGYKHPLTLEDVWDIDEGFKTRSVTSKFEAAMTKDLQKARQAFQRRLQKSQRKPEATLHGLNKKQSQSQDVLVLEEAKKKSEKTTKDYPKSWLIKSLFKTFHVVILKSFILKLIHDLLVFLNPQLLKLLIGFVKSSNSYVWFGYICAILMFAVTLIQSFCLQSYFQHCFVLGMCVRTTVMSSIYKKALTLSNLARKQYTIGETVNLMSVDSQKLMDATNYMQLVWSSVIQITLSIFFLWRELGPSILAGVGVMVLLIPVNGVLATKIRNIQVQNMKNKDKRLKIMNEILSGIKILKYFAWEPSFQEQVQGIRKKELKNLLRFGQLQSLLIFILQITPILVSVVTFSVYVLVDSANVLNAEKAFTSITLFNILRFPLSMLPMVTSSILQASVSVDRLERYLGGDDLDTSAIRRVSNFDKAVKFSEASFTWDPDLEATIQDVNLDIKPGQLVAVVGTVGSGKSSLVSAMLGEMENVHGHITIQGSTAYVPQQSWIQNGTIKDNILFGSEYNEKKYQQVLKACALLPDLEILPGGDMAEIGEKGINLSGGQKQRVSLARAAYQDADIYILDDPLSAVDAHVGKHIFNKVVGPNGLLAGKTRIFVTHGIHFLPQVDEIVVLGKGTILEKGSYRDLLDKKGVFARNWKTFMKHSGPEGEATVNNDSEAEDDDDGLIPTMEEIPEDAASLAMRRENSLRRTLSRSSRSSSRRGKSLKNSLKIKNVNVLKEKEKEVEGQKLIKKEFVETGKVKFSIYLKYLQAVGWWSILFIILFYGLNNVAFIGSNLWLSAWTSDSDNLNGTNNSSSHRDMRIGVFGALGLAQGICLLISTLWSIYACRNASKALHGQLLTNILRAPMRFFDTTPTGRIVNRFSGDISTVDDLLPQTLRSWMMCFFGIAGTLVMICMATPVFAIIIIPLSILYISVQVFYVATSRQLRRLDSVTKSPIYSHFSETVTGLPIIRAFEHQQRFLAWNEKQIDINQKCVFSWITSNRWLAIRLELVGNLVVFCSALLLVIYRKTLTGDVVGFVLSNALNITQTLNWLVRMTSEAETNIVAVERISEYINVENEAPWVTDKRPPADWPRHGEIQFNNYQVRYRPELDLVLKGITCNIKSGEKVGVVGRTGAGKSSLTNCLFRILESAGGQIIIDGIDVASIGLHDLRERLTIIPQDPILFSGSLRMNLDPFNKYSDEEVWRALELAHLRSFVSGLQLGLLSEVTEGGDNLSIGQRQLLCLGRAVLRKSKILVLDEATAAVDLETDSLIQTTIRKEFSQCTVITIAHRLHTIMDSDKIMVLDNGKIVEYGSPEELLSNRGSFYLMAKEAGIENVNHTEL

Consider `O=C1CC(c2ccc(O[C@@H]3O[C@H](C(=O)O)[C@@H](O)[C@H](O)[C@H]3O)cc2)Oc2cc(O)ccc21` (some centres not stated) [LIQUIRTIGENIN GLUCURONIDE], for which the Activity result in series [1] and in series [2] was “substrate [+]” throughout.
